# Legend:
# [1] = test system: VEGF (vascular endothelial growth factor A); assay: Expression of HIF-1 target gene VEGF (RT-PCR, HCT116); assay type: cell-based, human
# Description: (§1) To investigate HIF-1 inhibition activity of the compound of the present invention, the inhibition of VEGF and EPO, two most representative HIF-1 target genes, by the compound of formula 1 prepared in example 1 was measured. Particularly, the colon cancer cell line HCT116 was used for the measurement as follows.
# (§2) The human colon cancer cell line HCT116 was seeded in cell culture vessel at the density of 2×10^5 cell/ml, followed by culture for 24 hours. The cells were pretreated in hypoxic condition (oxygen 1%; nitrogen 94%; carbon dioxide 5%) for 4 hours to induce the accumulation of HIF-1α. The cells were treated with the compound of formula 1 prepared in example 1 at the concentrations of 0, 10, and 20 μM, followed by culture for 12 hours in hypoxic condition. Then, mRNA was extracted by using trizol. To compare the expression with that of HIF-1 target gene treated with the compound prepared in comparative example 1, the control was treated with the compound of comparative example 1 at the concentrations of 0, 10, 15, and 20 μM. From the extracted mRNA, cDNA was synthesized by using RT-PCR kit (Invitrogen). The amounts of mRNAs of the HIF-1α target genes VEGF (vascular endothelial growth factor A) and EPO (erythropoietin) were measured by using RT-PCR and real-time RT-PCR. […]
# HCT116 cells = assay: Cell migration inhibition activity (wound-healing experiment); assay type: cell-based, human; details: 10 μM, 48 hours, FIG. 9
# Description: To evaluate cell migration inhibition effect of the compound of example 1, wound-healing experiment was performed. Particularly, an insert (Ibidi) was placed in the center of a 6-well cell culture dish and HCT116 cells (3×10^5 cell/ml) were loaded in each well by 70 μl. Medium was filled in around the insert. 24 hours later, the insert was carefully eliminated by using forceps, and the cells were washed with medium carefully not to be detached from the bottom of the culture dish. The control group was added with the diluted medium supplemented with DMSO. The experimental group was added with the diluted medium supplemented with 10 μM of the compound of example 1. 48 hours later, cell migration in each group was observed.
# HIF-1α = HIF-1α expression in tumor tissue (tumor tissue immune response experiment, Caki-1 model); assay type: in vivo, mouse; details: Caki-1 tumor, optical microscope; FIG. 6
# Description: In addition, to investigate whether or not the anticancer activity shown in experimental example 5 was attributed to the decrease of HIF-1α expression, tumor tissue immune response experiment was performed.
# EPO (erythropoietin) = assay: Expression of HIF-1 target gene EPO (RT-PCR, HCT116); assay type: cell-based, human; details: mRNA, HCT116, hypoxic condition, 0, 10, 20 μM; FIG. 5
# Description: as §1, §2
# HIF-1 = assay: Inhibition of HIF-1 mediated HRE transcription activity (pGL3-HRE-luciferase reporter); assay type: cell-based, human; details: for HRE transcription activity (%): HCT116, hypoxic condition 12 hours
# Description: To investigate the inhibition of HIF-1 transcription activity by the compound of the present invention, pGL3-basic vector (Promega) using luciferase as a reporter was cloned in multi-cloning site so as for HRE (Hypoxia Responsive Element, 5′-ACGTG-3′) existing in human VEGF gene to be repeated 6 times, resulting in the construction of pGL3-HRE-luciferase vector.
# The human rectal cancer cell line HCT116 was seeded in a 48-well cell culture vessel. On the next day, the cells were transfected with 25 ng of pGL3-HRE-luciferase vector and 2.5 ng of Renilla control vector by using Polyfect reagent. After culturing the cells for 24 hours, the medium was replaced, followed by further culture for 4 hours. Then, the cells were treated with the compound prepared in each example at the concentration of 10 μM respectively, followed by culture in hypoxic condition (oxygen 1%, nitrogen 94%, carbon dioxide 5%) for 12 hours. Lysate was obtained by using RIPA buffer, by which hypoxia-induced luciferase activity was measured by using dual-luciferase assay system (Promega). Hypoxia-induced luciferase activity after the treatment of the compound prepared in example 1 or the compound prepared in comparative example 1 was measured by the same manner as described above except that the compound was treated at the concentrations of 0, 1, 3, 5, 10, and 20 μM. HIF-1 inhibition activity of each compound prepared in example 1 and comparative example 1 respectively was compared and the results are shown in Table 2 and FIG. 2.
# [2] = test system: B16F10 melanoma cell line; assay: Angiogenesis inhibition activity in B16F10 tumor tissue; assay type: in vivo, mouse; details: FIG. 7, FIG. 8
# Description: The following experiment was performed to investigate if the compound of formula 1 could inhibit angiogenesis along with the tumor growth.
# Particularly, the experimental group composed of 5 female mice (C57BL) at 6 weeks was transplanted with B16F10 melanoma cell line. After the cancer cells were grown, the mice were treated with the compound of formula 1 via intraperitoneal injection at the dose of […] for 5 days. Inhibition of angiogenesis and the tumor growth were observed. In the meantime, the control group was treated with the mixed solution comprising 10% DMAC, 10% cremophor and 80% buffer (pH 10) every day. The comparative group was treated with topotecan at the dose of 2 mg/kg once every other day. Weight changes and the newly generated blood vessels were measured and the results are shown in Table 7, Table 8, FIG. 7, and FIG. 8. The tumor volume shown in Table 8 was calculated by the mathematical formula 1 of experimental example 4 and the inhibition rate was calculated by the mathematical formula 2 of experimental example 4.
smiles,measurement,setting,value
"COC(=O)c1cccc(NC(=O)/C=C/Oc2ccc(C34CC5CC(CC(C5)C3)C4)cc2)c1 [Example 1, (E)-3-[3-(4-Adamantan-1-yl-phenoxy)-acryloylamino]-benzoic acid methyl ester]",expression of GAPDH,"[1]; internal control gene, HCT116, hypoxic condition",did not change
same,expression of VEGF,"[1]; mRNA, HCT116, hypoxic condition, 0, 10, 20 μM, FIG. 5","inhibited the expressions of VEGF and EPO, the HIF-1 target genes, dose-dependently"
same,cell migration,HCT116 cells,significantly reduced cell migration
same,HIF-1α expression in tumor tissue,HIF-1α,significantly reduced
same,expression of EPO,EPO (erythropoietin),"inhibited the expressions of VEGF and EPO, the HIF-1 target genes, dose-dependently"
same,HRE transcription activity (%),HIF-1; 1 μM,57.7%
same,HRE transcription activity (%),HIF-1; 3 μM,32.1%
same,HRE transcription activity (%),HIF-1; 5 μM,25.4%
same,HRE transcription activity (%),HIF-1; 10 μM,23.0%
same,HRE transcription activity (%),HIF-1; 20 μM,19.8%
same,inhibition effect on HRE transcription activity compared with the compound of comparative example 1,"HIF-1; cancer cell line HCT116, hypoxia",at least three times higher inhibition effect
same,reduction of angiogenesis compared with non-treated group,[2],~40%

# From patent US8940936B2, “Aryloxy phenoxy acrylic compound having HIF-1 inhibition activity, method for preparing same, and pharmaceutical composition containing same as an active ingredient” (Korea Research Institute of Bioscience and Biotechnology, priority 2010, dated 2015)
